Consider 23 compounds from patent publication US9234000B2, “Benzylamine derivatives as inhibitors of plasma kallikrein” (KalVista Pharmaceuticals Limited, priority 2011, dated 2016).

A short description of one data set: physchem. As to conditions: pH 7. The protocol: Determination of the Kinetic Solubility in Phosphate Buffer
After shaking for approximately 30 seconds the reduction in light transmission of these samples, at 650 nm, was measured (Molecular Devices Spectromax UV/visible spectrophotometer). A second measurement was taken at approximately 30 seconds later.

Another data set concerns the target Human plasma kallikrein (Homo sapiens (Human), UniProt P03952). As to the kind of experiment: Determination of the IC50 for plasma kallikrein. Format: biochemical. As to conditions: 37° C., read-out: IC50 (human PKal). Summed up:
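Human plasma kallikrein incubated at 37° C with fluorogenic substrate H-DPro-Phe-Arg-AFC and varying compound concentrations. Initial reaction rate followed by absorbance change at 410 nm to give residual activity and IC50.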

A further data set deals with Human KLK1 (Homo sapiens (Human), UniProt P06870). As to the kind of experiment: Determination of the IC50 for KLK1. Format: biochemical. The note with it: Human KLK1, 37° C., substrate H-DVal-Leu-Arg-AFC. Put shortly:
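Test compound at various concentrations was incubated with human KLK1 and the fluorogenic substrate H-DVal-Leu-Arg-AFC at 37° C. Absorbance change at 410 nm gave the initial reaction rate, from which IC50 was obtained.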

The mark [1] stands for this setting: fluorogenic substrate H-DPro-Phe-Arg-AFC.

Where two headings read alike, the source gives them in different places.

Chain of Human KLK1 (P06870 25-262): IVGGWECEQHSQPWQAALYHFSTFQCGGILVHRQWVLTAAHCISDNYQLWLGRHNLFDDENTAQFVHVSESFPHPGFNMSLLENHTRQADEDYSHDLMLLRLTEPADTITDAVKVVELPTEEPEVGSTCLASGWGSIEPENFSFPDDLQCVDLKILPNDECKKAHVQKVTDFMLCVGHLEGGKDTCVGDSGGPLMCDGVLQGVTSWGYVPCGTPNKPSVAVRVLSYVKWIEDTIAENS
Chain of Human plasma kallikrein (P03952 391-638): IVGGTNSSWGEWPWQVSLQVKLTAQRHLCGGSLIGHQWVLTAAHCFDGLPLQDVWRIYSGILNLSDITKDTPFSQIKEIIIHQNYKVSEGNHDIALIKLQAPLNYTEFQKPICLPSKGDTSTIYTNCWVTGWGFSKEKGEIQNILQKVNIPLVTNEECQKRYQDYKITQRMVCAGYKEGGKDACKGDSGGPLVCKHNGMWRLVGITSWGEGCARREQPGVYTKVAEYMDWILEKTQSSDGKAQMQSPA
Chain of Human plasma kallikrein (P03952 20-390 partner): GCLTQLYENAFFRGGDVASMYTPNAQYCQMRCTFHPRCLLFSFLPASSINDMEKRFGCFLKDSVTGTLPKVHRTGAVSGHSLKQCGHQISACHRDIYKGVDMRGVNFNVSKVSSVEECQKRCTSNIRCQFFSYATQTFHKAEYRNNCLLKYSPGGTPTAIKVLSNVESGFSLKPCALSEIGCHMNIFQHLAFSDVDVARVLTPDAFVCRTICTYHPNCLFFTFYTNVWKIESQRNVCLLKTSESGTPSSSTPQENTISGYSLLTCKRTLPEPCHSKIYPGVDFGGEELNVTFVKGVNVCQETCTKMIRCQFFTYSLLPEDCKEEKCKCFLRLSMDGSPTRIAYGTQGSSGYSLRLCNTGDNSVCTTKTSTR

For `CCC(=O)N[C@H](CC1CCCCC1)C(=O)N[C@@H](Cc1ccccc1)C(=O)NCc1ccc(CN)cc1` [Example 10, (S)-N-(4-Aminomethyl-benzyl)-2-((R)-3-cyclohexyl-2-propionylamino-propionylamino)-3-phenyl-propionamide], the solubility in PO4 buffer in the data set “physchem” is > 235 µM. Moreover, the IC50 (as a rule, the concentration that inhibits the measured activity by half) on Human plasma kallikrein (setting [1]) was found to be 7.2 µM. For `CCOc1ccc(C[C@@H](NC(=O)c2cc(C)nc(Cl)c2)C(=O)N[C@@H](Cc2ccccc2)C(=O)NCc2ccc(CN)cc2)cc1` [Example 110, N-[(R)-1-[(S)-1-(4-Aminomethyl-benzylcarbamoyl)-2-phenyl-ethylcarbamoyl]-2-(4-ethoxy-phenyl)-ethyl]-2-chloro-6-methyl-isonicotinamide], the half-inhibitory concentration (IC50) is > 10 µM against Human KLK1 (Table 13) and 0.598 µM on Human plasma kallikrein (substrate H-DPro-Phe-Arg-AFC).

As for `CCOc1ccc(C[C@@H](NC(=O)c2scnc2C)C(=O)N[C@@H](Cc2ccccc2)C(=O)NCc2ccc(CN)cc2)cc1` [Example 117, 4-Methyl-thiazole-5-carboxylic acid[(R)-1-[(S)-1-(4-aminomethyl-benzylcarbamoyl)-2-phenyl-ethylcarbamoyl]-2-(4-ethoxy-phenyl)-ethyl]-amide], the figures for the IC50 at Human KLK1 (Table 13) and on Human plasma kallikrein (substrate H-DPro-Phe-Arg-AFC) were 6.1 µM and 0.048 µM, respectively.

Consider `CCOc1ccc(C[C@@H](NC(=O)c2ccccn2)C(=O)N[C@@H](Cc2ccc(Cl)c(Cl)c2)C(=O)NCc2ccc(CN)cc2)cc1` [Example 165, Pyridine-2-carboxylic acid [(R)-1-[(S)-1-(4-aminomethyl-benzylcarbamoyl)-2-(3,4-dichloro-phenyl)-ethylcarbamoyl]-2-(4-ethoxy-phenyl)-ethyl]-amide], for which the half-maximal inhibitory concentration (IC50) is > 10 µM at Human KLK1 (Table 13) and 0.07 µM on Human plasma kallikrein (substrate H-DPro-Phe-Arg-AFC).

Take `CCOc1ccc(C[C@@H](NC(=O)c2ccccc2)C(=O)N[C@@H](Cc2ccc(OC)cc2)C(=O)NCc2ccc(CN)cc2)cc1` [Example 146, N-[(R)-1-[(S)-1-(4-Aminomethyl-benzylcarbamoyl)-2-(4-methoxy-phenyl)-ethylcarbamoyl]-2-(4-ethoxy-phenyl)-ethyl]-benzamide]: the figures for the IC50 against Human KLK1 (Table 13) and at Human plasma kallikrein (substrate H-DPro-Phe-Arg-AFC) were > 10 µM and 0.232 µM, respectively. For `CCCCCC(=O)N[C@H](Cc1ccc(OCC)cc1)C(=O)N[C@@H](Cc1ccccc1)C(=O)NCc1ccc(CN)cc1` [Example 76, Hexanoic acid [(R)-1-[(S)-1-(4-aminomethyl-benzylcarbamoyl)-2-phenyl-ethylcarbamoyl]-2-(4-ethoxy-phenyl)-ethyl]-amide], in that order: 3.6 µM and 0.452 µM. Take `CCOc1ccc(C[C@@H](NC(=O)c2cnc(Cl)c(Cl)c2)C(=O)N[C@@H](Cc2ccccc2)C(=O)NCc2ccc(CN)cc2)cc1` [Example 107, N-[(R)-1-[(S)-1-(4-Aminomethyl-benzylcarbamoyl)-2-phenyl-ethylcarbamoyl]-2-(4-ethoxy-phenyl)-ethyl]-5,6-dichloro-nicotinamide]: the half-inhibitory concentration (IC50) at Human KLK1 (Table 13) stood at 7.5 µM; at Human plasma kallikrein (substrate H-DPro-Phe-Arg-AFC) it was 0.133 µM. Turning to `CCOc1ccc(C[C@@H](NC(=O)c2ccc(C)nc2)C(=O)N[C@@H](Cc2ccccc2)C(=O)NCc2ccc(CN)cc2)cc1` [Example 104, N-[(R)-1-[(S)-1-(4-Aminomethyl-benzylcarbamoyl)-2-phenyl-ethylcarbamoyl]-2-(4-ethoxy-phenyl)-ethyl]-6-methyl-nicotinamide], the IC50 against Human KLK1 (Table 13) is > 10 µM; on Human plasma kallikrein (substrate H-DPro-Phe-Arg-AFC), 0.159 µM. With `CCOc1ccc(C[C@@H](NC(=O)c2ccccc2)C(=O)N[C@@H](Cc2ccc(Cl)cc2)C(=O)NCc2ccc(CN)cc2)cc1` [Example 142, N-[(R)-1-[(S)-1-(4-Aminomethyl-benzylcarbamoyl)-2-(4-chloro-phenyl)-ethylcarbamoyl]-2-(4-ethoxy-phenyl)-ethyl]-benzamide], the IC50 against Human KLK1 (Table 13) is > 10 µM; on Human plasma kallikrein (substrate H-DPro-Phe-Arg-AFC) it was 0.096 µM. Turning to `CCOc1ccc(C[C@@H](NC(=O)CNC(=O)c2ccccc2)C(=O)N[C@@H](Cc2ccccc2)C(=O)NCc2ccc(CN)cc2)cc1` [Example 98, N-{[(R)-1-[(S)-1-(4-Aminomethyl-benzylcarbamoyl)-2-phenyl-ethylcarbamoyl]-2-(4-ethoxy-phenyl)-ethylcarbamoyl]-methyl}-benzamide], the IC50 at Human KLK1 (Table 13) was found to be 5.1 µM; at Human plasma kallikrein (substrate H-DPro-Phe-Arg-AFC), 0.576 µM. Regarding `CCOc1ccc(C[C@@H](NC(=O)C2CC2)C(=O)N[C@@H](Cc2ccccc2)C(=O)NCc2ccc(CN)cc2)cc1` [Example 74, Cyclopropanecarboxylic acid [(R)-1-[(S)-1-(4-aminomethyl-benzylcarbamoyl)-2-phenyl-ethylcarbamoyl]-2-(4-ethoxy-phenyl)-ethyl]-amide], the IC50 against Human KLK1 (Table 13) is > 10 µM; at Human plasma kallikrein (substrate H-DPro-Phe-Arg-AFC) it was 0.545 µM. For `CCOc1ccc(C[C@@H](NC(=O)CCc2ccccc2)C(=O)N[C@@H](Cc2ccccc2)C(=O)NCc2ccc(CN)cc2)cc1` [Example 86, (S)-N-(4-Aminomethyl-benzyl)-2-[(R)-3-(4-ethoxy-phenyl)-2-(3-phenyl-propionylamino)-propionylamino]-3-phenyl-propionamide], in that order: > 10 µM and 0.423 µM.

Take `NCc1ccc(CNC(=O)[C@H](Cc2ccccc2)NC(=O)[C@@H](CC2CCCCC2)NC(=O)c2ccccc2)cc1` [Example 126, N-{(R)-1-[(S)-1-(4-Aminomethyl-benzylcarbamoyl)-2-phenyl-ethylcarbamoyl]-2-cyclohexyl-ethyl}-benzamide]: the IC50 at Human KLK1 (Table 13) was > 10 µM; at Human plasma kallikrein (substrate H-DPro-Phe-Arg-AFC) it was 4.01 µM. As for `CCOc1ccc(C[C@@H](NC(=O)Nc2ccccc2)C(=O)N[C@@H](Cc2ccccc2)C(=O)NCc2ccc(CN)cc2)cc1` [Example 69, (R)-N-[(S)-1-(4-Aminomethyl-benzylcarbamoyl)-2-phenyl-ethyl]-3-(4-ethoxy-phenyl)-2-(3-phenyl-ureido)-propionamide], the IC50 against Human KLK1 (Table 13) is > 10 µM; at Human plasma kallikrein (substrate H-DPro-Phe-Arg-AFC), 0.621 µM.

In the case of `CCOc1ccc(C[C@@H](NC(=O)c2cnc(C)s2)C(=O)N[C@@H](Cc2ccccc2)C(=O)NCc2ccc(CN)cc2)cc1` [Example 112, 2-Methyl-thiazole-5-carboxylic acid [(R)-1-[(S)-1-(4-aminomethyl-benzylcarbamoyl)-2-phenyl-ethylcarbamoyl]-2-(4-ethoxy-phenyl)-ethyl]-amide], the 50% inhibitory concentration (IC50) against Human KLK1 (Table 13) is > 10 µM; on Human plasma kallikrein (substrate H-DPro-Phe-Arg-AFC), 0.298 µM.

In the case of `COC(=O)CN[C@H](CC1CCCCC1)C(=O)N[C@@H](Cc1ccccc1)C(=O)NCc1ccc(CN)cc1` [Example 46, {(R)-1-[(S)-1-(4-Aminomethyl-benzylcarbamoyl)-2-phenyl-ethylcarbamoyl]-2-cyclohexyl-ethylamino}-acetic acid methyl ester], the IC50 on Human KLK1 (Table 12) is > 10 µM; at Human plasma kallikrein (setting [1]) it was 1.2 µM. `NCc1ccc(CNC(=O)[C@H](Cc2ccccc2)NC(=O)[C@H](N)CC2CCCCC2)cc1` [Example 8, (R)-2-Amino-N-[(S)-1-(4-aminomethyl-benzylcarbamoyl)-2-phenyl-ethyl]-3-cyclohexyl-propionamide]: the solubility in PO4 buffer in “physchem” was > 235 µM.

With `CCOc1ccc(C[C@@H](NC(=O)CC)C(=O)N[C@@H](Cc2ccccc2)C(=O)NCc2ccc(CN)c(Cl)c2)cc1` [Example 23, (S)-N-(4-Aminomethyl-3-chloro-benzyl)-2-[(R)-3-(4-ethoxy-phenyl)-2-propionylamino-propionylamino]-3-phenyl-propionamide], the half-maximal inhibitory concentration (IC50) stood at 5.6 µM against Human KLK1 (Table 12) and 0.031 µM at Human plasma kallikrein (setting [1]). As to `CCOc1ccc(C[C@@H](NC(=O)c2cnc3cc(Cl)ccc3c2)C(=O)N[C@@H](Cc2ccccc2)C(=O)NCc2ccc(CN)cc2)cc1` [Example 115, 7-Chloro-quinoline-3-carboxylic acid [(R)-1-[(S)-1-(4-aminomethyl-benzylcarbamoyl)-2-phenyl-ethylcarbamoyl]-2-(4-ethoxy-phenyl)-ethyl]-amide], the values for the IC50 on Human KLK1 (Table 13) and on Human plasma kallikrein (substrate H-DPro-Phe-Arg-AFC) were 9 µM and 0.417 µM, respectively. Turning to `NCc1ccc(CNC(=O)[C@H](Cc2ccccc2)NC(=O)[C@@H](Cc2ccc(OCc3ccc(F)cc3)cc2)NC(=O)c2ccccc2)cc1` [Example 130, N-{(R)-1-[(S)-1-(4-Aminomethyl-benzylcarbamoyl)-2-phenyl-ethylcarbamoyl]-2-[4-(4-fluoro-benzyloxy)-phenyl]-ethyl}-benzamide], the figures for the half-inhibitory concentration (IC50) at Human KLK1 (Table 13) and at Human plasma kallikrein (substrate H-DPro-Phe-Arg-AFC) were > 10 µM and 2.49 µM, respectively.

For the compound `CCOc1ccc(C[C@@H](NC(=O)c2cccnc2C)C(=O)N[C@@H](Cc2ccccc2)C(=O)NCc2ccc(CN)cc2)cc1` [Example 105, N-[(R)-1-[(S)-1-(4-Aminomethyl-benzylcarbamoyl)-2-phenyl-ethylcarbamoyl]-2-(4-ethoxy-phenyl)-ethyl]-2-methyl-nicotinamide], the half-maximal inhibitory concentration (IC50) is > 10 µM on Human KLK1 (Table 13) and 0.185 µM on Human plasma kallikrein (substrate H-DPro-Phe-Arg-AFC). In the case of `CCOc1ccc(C[C@@H](NC(=O)CC(F)(F)F)C(=O)N[C@@H](Cc2ccccc2)C(=O)NCc2ccc(CN)cc2)cc1` [Example 109, N-[(R)-1-[(S)-1-(4-Aminomethyl-benzylcarbamoyl)-2-phenyl-ethylcarbamoyl]-2-(4-ethoxy-phenyl)-ethyl]-3,3,3-trifluoro-propionamide], the values for the IC50 against Human KLK1 (Table 13) and at Human plasma kallikrein (substrate H-DPro-Phe-Arg-AFC) were > 10 µM and 0.155 µM, respectively. For `CCOc1ccc(C[C@@H](NC(=O)c2cccc(OC)n2)C(=O)N[C@@H](Cc2ccccc2)C(=O)NCc2ccc(CN)cc2)cc1` [Example 120, 6-Methoxy-pyridine-2-carboxylic acid [(R)-1-[(S)-1-(4-aminomethyl-benzylcarbamoyl)-2-phenyl-ethylcarbamoyl]-2-(4-ethoxy-phenyl)-ethyl]-amide], in that order: > 10 µM and 0.54 µM.
